Source: patent publication US11766468B2, “Method of treating prostate cancer with GnRH antagonist” (priority 2012, dated 2023)
Square brackets hold non-standard residues; d marks the D form. Peptide text beside a SMILES is read from it. * marks the point of attachment. dPhe(4-NHCONH2) = NC(=O)Nc1ccc(C[C@@H](N)C(=O)O)cc1; Dihydroorotyl(S) = O=C1C[C@@H](C(=O)*)NC(=O)N1; dPhe(4-Cl) = N[C@H](Cc1ccc(Cl)cc1)C(=O)O; Phe(4-NH2) = Nc1ccc(C[C@H](N)C(=O)O)cc1; d2Nal = N[C@H](Cc1ccc2ccccc2c1)C(=O)O; Lys(iPr) = CC(C)NCCCC[C@H](N)C(=O)O; d3Pal = N[C@H](Cc1cccnc1)C(=O)O

How the values were obtained:
[1] = design: species or system human; settings: in vivo
Source text: Plasma protein binding is estimated to be approximately 90%.

[2] = test system: follicle stimulating hormone (FSH); assay: CS21: serum FSH over time; assay type: in vivo, human; settings: by day 7
Procedure: (§1) Finally, the study evaluated the pharmacokinetics of the degarelix dosing regimens investigated.
(§2) The secondary efficacy endpoints were: the proportion of patients with testosterone surge during the first 2 weeks of treatment; the proportion of patients with testosterone level ≤0.5 ng/mL at day 3; the percentage change in PSA from baseline to day 28; the probability of testosterone ≤0.5 ng/mL from day 56 through day 364; the levels of serum testosterone, LH, FSH and PSA over time through the study; the time to PSA failure, defined as two consecutive increases of 50%, and at least 5 ng/mL as compared to nadir; degarelix concentration over the first month and trough levels at day 308 and 336; the frequency and size of testosterone increases at day 255 and/or 259 compared to the testosterone level at day 252; the quality of life on days 0, 28, 84, 168 and end of study visit; the frequency and intensity of hot flushes experienced (scored daily from study start until end of study visit. In addition, two further secondary endpoints were added: the probability of sufficient testosterone response from day 28 through day 364 (a patient was considered to have insufficient testosterone response if they had one testosterone value >1.0 ng/mL or two consecutive testosterone values >0.5 ng/mL at day 28 onwards); and the percentage change in PSA from baseline to Day 14.

[3] = CS21: mortality by treatment group; assay type: in vivo, human
Source text: The death of a patient enrolled in this study was not considered an event per se, but rather an outcome. Any event resulting in a fatal outcome was fully documented and reported, including death, which occurred within the four weeks after treatment end, and regardless of the causality relationship to the IMP.
Mortality Subgroups with Statistically (Pre-Planned as Part of the ISS) Significant Findings

[4] = in vivo
Procedure: Laboratory parameters (Table 4) were recorded at screening and during the study.

[5] = CS21: incidence rates of cardiovascular events per 1,000 person years (Poisson model), by risk-factor subgroup
Source text: The SCS summarizes both crude incidences (n/N) as well as incidence rates of adverse events (number of patients with at least one adverse event investigated per 1,000 person years) including exact 95% CI based on the Poisson model and presented per MedDRA Preferred term (and grouped by SOC) for all study-groups, including the CS21 trial (the trial comprising the controlled phase 3 study group) and for all sub-groups. Briefly, the Poisson model provides exact 1-α lower (LL) and upper (UL) confidence limits are LL=χ2x; α/2^2/(2T) and UL=χ2(x+1); 1-α/2^2/(2T), respectively, where T is the number of 1,000 person years and x=number of subjects at least once having reported the adverse event under investigation (see Gerlinger et al. (2003) Eur. J. Contracept. Reprod. Health Care 8:87-92).
These P values were presented as *(0.01<P≤0.05), ** (0.001<P≤0.01), and *** (P≤0.001). Similarly, incidence rates were compared using P values associated with the Poison model-based UMPU test. Briefly, assuming xi˜Poisson(λiTi), where xi=the number of subjects with the event, Ti=total number of 1,000 person years in arm i and λi=incidence rate in arm i (i=1,2), then the P value=2 min ([…], P(S≤x1), 0.5), where S˜Binomial (x1+x2, T1/(T1+T2)) (see, e.g. Lehmann (1986) Testing Statistical Hypotheses, 2nd edition, Springer-Verlag, New York).
In the SCS, cardiovascular events were more specifically investigated on more aggregated MedDRA levels, i.e. the incidence, and incidence rates of subject with AEs in the following High Level Group Terms were tabulated by study group and treatment:
These subgroup analyses were not pre-planned as part of the SCS.

[6] = in vivo; remark: listed apart in the source
Procedure: Body weight was measured at screening and the end of study visit.

testosterone = assay: CS21 phase 3 study, degarelix vs leuprolide 7.5 mg: serum testosterone suppression; assay type: in vivo, human; settings: for Probability of sufficient testosterone response / Probability of testosterone ≤0.5 ng/mL from Day 28 through Day 364 / Probability of testosterone ≤0.5 ng/mL from Day 56 through Day 364: age <65
Procedure: In this example, an open-label, multi-center, randomized, parallel-group study was conducted to investigate the efficacy and safety of degarelix one month dosing regimens. […] These degarelix dosing regimens were compared to LUPRON DEPOT™ at 7.5 mg in patients with prostate cancer requiring androgen ablation therapy. […] Finally, the study evaluated the pharmacokinetics of the degarelix dosing regimens investigated. […] The primary efficacy endpoint was analyzed for both the ITT and PP analysis sets, with the ITT analysis set considered primary. The primary efficacy endpoint was analyzed using the Kaplan Meier method. For each of the three treatment groups, testosterone response rates with 95% confidence interval (CI) were calculated by log-log transformation of survivor function. […] All secondary efficacy endpoints were analyzed for both the ITT and PP analysis sets, unless otherwise stated. […] The percentage change in PSA from baseline to day 28 endpoint was analyzed by a Wilcoxon test. […] The secondary endpoints; probability of testosterone ≤0.5 ng/mL from Day 56 through Day 364, time to PSA failure and probability of sufficient testosterone response from Day 28 through Day 364 were analyzed by the Kaplan-Meier method.

luteinizing hormone (LH) = assay: CS21: serum LH over time; assay type: in vivo, human; settings: day 1
Procedure: as §1, §2

[7] = degarelix 240@40/80@20, LUPRON DEPOT 7.5 mg
[8] = degarelix 240/80 mg, leuprolide 7.5 mg

CC(=O)N[C@H](Cc1ccc2ccccc2c1)C(=O)N[C@H](Cc1ccc(Cl)cc1)C(=O)N[C@H](Cc1cccnc1)C(=O)N[C@@H](CO)C(=O)N[C@@H](Cc1ccc(NC(=O)[C@@H]2CC(=O)NC(=O)N2)cc1)C(=O)N[C@H](Cc1ccc(NC(N)=O)cc1)C(=O)N[C@@H](CC(C)C)C(=O)N[C@@H](CCCCNC(C)C)C(=O)N1CCC[C@H]1C(=O)N[C@H](C)C(N)=O [Degarelix, D-Alaninamide, N-acetyl-3-(2-naphthalenyl)-D-alanyl-4-chloro-D-phenylalanyl-3-(3-pyridinyl)-D-alanyl-L-seryl-4-[[[(4S)-hexahydro-2,6-dioxo-4-pyrimidinyl]carbonyl]amino]-L phenylalanyl-4-[(aminocarbonyl)amino]-D-phenylalanyl-L leucyl-N6-(1-methylethyl)-L-lysyl-L-prolyl] (Ac-[d2Nal][dPhe(4-Cl)][d3Pal]S[Phe(4-NH2)](Dihydroorotyl(S))[dPhe(4-NHCONH2)]L[Lys(iPr)]P[dA]-NH2)
distribution volume [1]: approximately 1 L/kg
fraction excreted via the hepato-biliary system [1]: approximately 80%
fraction of dose renally excreted [1]: approximately 20%
decrease in median FSH from baseline [2]: > 80%
median FSH level [2]: ≤ 1.5 IU/L
Crude Mortality ([3]; Age >=65-<75): (2%)
Mortality per 1,000 PY, estimate ([3]; Age >=65-<75): 20.2 per 1,000 PY
No. of Deaths ([3]; Age >=65-<75): 3
Crude Mortality ([3]; PCA = Localized): (0%)
Mortality per 1,000 PY, estimate ([3]; PCA = Localized): 0 per 1,000 PY
No. of Deaths ([3]; PCA = Localized): 0
changes in liver function [4]: no evidence of any clinically significant changes in liver function
Cardiac arrhythmias, relative risk degarelix vs Lupron ([5]; BMI 25-<30 kg/m2): 0.566
Cardiac disorders (SOC), relative risk degarelix vs Lupron ([5]; BMI 25-<30 kg/m2): 0.765
Coronary artery disorders, relative risk degarelix vs Lupron ([5]; BMI 25-<30 kg/m2): 1.013
Cardiac arrhythmias, relative risk degarelix vs Lupron ([5]; BMI <25 kg/m2): 0.312
Cardiac disorders (SOC), relative risk degarelix vs Lupron ([5]; BMI <25 kg/m2): 0.242
Coronary artery disorders, relative risk degarelix vs Lupron ([5]; BMI <25 kg/m2): 0.000
Coronary artery disorders, relative risk degarelix vs Lupron ([5]; BMI <25 kg/m2, listed as degarelix): 0.0
Cardiac arrhythmias, relative risk degarelix vs Lupron ([5]; BMI >=30 kg/m2): 3.161
Cardiac disorders (SOC), relative risk degarelix vs Lupron ([5]; BMI >=30 kg/m2): 1.946
Coronary artery disorders, relative risk degarelix vs Lupron ([5]; BMI >=30 kg/m2): 1.217
Cardiac arrhythmias, relative risk degarelix vs Lupron ([5]; Cholesterol <4 mmol/L): 1.973
Cardiac arrhythmias, relative risk degarelix vs Lupron ([5]; Cholesterol >=4 mmol/L): 0.411
Cardiac arrhythmias, relative risk degarelix vs Lupron ([5]; Cholesterol >=4 mmol/L, listed as degarelix): 0.41
Coronary artery disease, % of patients ([5]; in vivo): (3%)
Coronary artery disease, incidence rate ([5]; in vivo): 34.2 per 1,000 person years
HLGT Cardiac arrhythmias, % of patients ([5]; in vivo): (5%)
HLGT Cardiac arrhythmias, incidence rate ([5]; in vivo): 57.7 per 1,000 person years
HLGT Central nervous system vascular disorders, % of patients ([5]; in vivo): (<1%)
HLGT Central nervous system vascular disorders, incidence rate ([5]; in vivo): 14.2 per 1,000 person years
HLGT Coronary artery disorders, % of patients ([5]; in vivo): (3%)
HLGT Coronary artery disorders, incidence rate ([5]; in vivo): 34.2 per 1,000 person years
HLGT Heart failures, % of patients ([5]; in vivo): (<1%)
HLGT Heart failures, incidence rate ([5]; in vivo): 14.1 per 1,000 person years
Heart failure, % of patients ([5]; in vivo): (1%)
Heart failure, incidence rate ([5]; in vivo): 14.1 per 1,000 person years
MI, % of patients ([5]; in vivo): (<1%)
MI, incidence rate ([5]; in vivo): 5.64 per 1,000 person years
Stroke, % of patients ([5]; in vivo): (<1%)
Stroke, incidence rate ([5]; in vivo): 8.49 per 1,000 person years
markedly abnormal increases in weight of ≥7% from baseline, % of patients [6]: 10%
median testosterone level (testosterone; after one year of treatment, 80 mg monthly): 0.087 ng/mL
Probability of sufficient testosterone response (testosterone; degarelix 240/160@40): 96.7%
Probability of testosterone ≤0.5 ng/mL from Day 28 through Day 364 (testosterone; degarelix 240/160@40): 96.7%
Probability of testosterone ≤0.5 ng/mL from Day 56 through Day 364 (testosterone; degarelix 240/160@40): 96.7%
Probability of sufficient testosterone response (testosterone; [7]): 97.4%
Probability of testosterone ≤0.5 ng/mL from Day 28 through Day 364 (testosterone; [7]): 97.4%
Probability of testosterone ≤0.5 ng/mL from Day 56 through Day 364 (testosterone; [7]): 97.4%
patients with testosterone suppression on day 3 (testosterone; day 3): 96%
Kaplan-Meier probability of testosterone ≤0.5 ng/mL from day 28 to day 364 (testosterone; [8]): 97.2%
observed cases analysis: proportion of patients with testosterone ≤0.5 ng/mL from day 28 to day 364 (testosterone; [8]): 97.0%
Kaplan-Meier probability of testosterone ≤0.5 ng/mL from day 28 to day 364 (testosterone; degarelix 240/160 mg): 98.3%
observed cases analysis: proportion of patients with testosterone ≤0.5 ng/mL from day 28 to day 364 (testosterone; degarelix 240/160 mg): 98.2%
patients with testosterone surge (increase ≥15% from baseline) (testosterone; first two weeks, pooled degarelix, leuprolide 7.5 mg): 0.2%
patients with sustained testosterone suppression (testosterone; maintenance monthly 80 mg, at least one year): 97%
decrease in median LH from baseline (luteinizing hormone (LH)): approximately 88%
median LH level (luteinizing hormone (LH)): < 0.7 IU/L
